Laboratory results as given in patent publication US5614192A, “T cell receptor peptides as therapeutics for immune-related disease” (Connective Therapeutics, Inc., priority 1993, dated 1997).
Where “and” joins values, the source holds several entries; their conditions need not be identical. Equal values may be shown once. Marks after values point to notes of the source that are not given here. Ends that are not written are not given here.

Legend:
EAE [1] = assay: Prevention, suppression and treatment of EAE with TCR Vβ8-39-59 peptide (Table 25); format: in vivo, Lewis rats
passive EAE = assay: Transfer of EAE to naive rats by GPBP-selected T cell lines from treated rats; format: in vivo
DTH (ear swelling) = assay: DTH to Vβ8.2-39-59 and Vβ8-44-54 in Vβ8-44-54/CFA immunized rats (Table 34); format: in vivo; conditions: rats immunized 14 days with Vβ8-44-54/CFA; net
Experimental: Transfer of DTH and protection: Delayed type hypersensitivity reactions were measured by the ear swelling assay (Offner et al., J. Neuroimmunol. 9: 147 (1984)) 24 and 48 h after injection i.d. of 20 μg antigen.
Values represent mean ± S.D. of net ear swelling in 6 immunized rats.

Gp-(S87-99) = target: T1, Gp-(S87-99) (Cavia porcellus, UniProt P25188); assay: Direct ELISA, antibody reactivity (Example VII); format: binding, guinea pig
T1 construct: made in house; host or cells: chemical solid-phase synthesis

LNC and T cell lines = assay: T cell proliferation after treatment of EAE with TCR Vβ8 39-59/CFA (Table 27); format: cell-based, rats
Experimental: Lymphocyte Proliferation: Activation of T cells was measured by ^3 H-Tdy uptake. 500,000 lymph node cells or 20,000 line cells in the presence of 1 million irradiated thymic accessory cells were incubated with culture medium and antigens in microtiter wells for 18 hours prior to the addition of 0.5 μBq labeled thymidine. The cell cultures were harvested onto glass fiber filters and counted by liquid scintillation techniques. Mean CPM were calculated from triplicate cultures. Standard deviations (SD) from replicate cultures varied <10% from the mean value.
^a Treated rats were injected s.q. with 50 μg TCR Vβ839-59
^b LW cells collected after the untreated group recovered from EAE

TCR Vβ 8(39-59) = format: binding, rat
TCR Vβ8(39-59) peptide = format: binding, rat
Gp-S49S = target: T2, Gp-S49S (Cavia porcellus, UniProt P25188); assay: Direct ELISA, antibody reactivity (Example VII); format: binding, guinea pig
T2 construct: Peptide Gp-S49S defines region 69-84 of GPBP and has a C-terminal glycine; made in house; host or cells: chemical solid-phase synthesis

EAE [2] = assay: Prevention and suppression of EAE by immunization with TCR Vβ8(39-59) (Table 17); format: in vivo, Lewis rats
DTH (ear thickness) = assay: DTH to T cells and TCR peptides after clone transfer or peptide immunization (Table 32); format: in vivo, rats; conditions: 50 μg TCR peptide
Experimental: Transfer of DTH and protection: Delayed type hypersensitivity reactions were measured by the ear swelling assay (Offner et al., J. Neuroimmunol. 9: 147)) 24 and 48 h after injection i.d. of 20 μg antigen.
Rats received 5 million activated clone C45569 or clone C5GpBP

EAE [3] = conditions: rat, in vivo
Experimental: Male Lewis rats (225250 g) were challenged SC with 100 μg TCR

Gp-S53 = target: T3, Gp-S53 (Cavia porcellus, UniProt P25188); assay: Direct ELISA, antibody reactivity (Example VII); format: binding, guinea pig
T3 construct: Gp-S53 (residues 75-84); made in house; host or cells: chemical solid-phase synthesis

[4] = peptide/CFA s.q., Day 0, listed as TCR
[5] = TCR day 0, Gp-S(87-99) d. 44, bleed d. 65, 1:320
[6] = TCR peptide d. 0, Gp-S49S d. 48, bleed d. 74, 1:80
[7] = TCR d. 0, Gp-S49S d. 48, bleed d. 74
[8] = peptide day 0, Gp-(S87-99) challenge day 44
[9] = peptide day 0, Gp-S49S challenge day 44

Sequence: DMGHGLRLIHYSYDVNSTEKG [TCR Vβ8(39-59), 21-amino acid CDR2 peptide of rat TCR Vβ8]
- maximum clinical severity (EAE [1]; 50 μg i.d. on day 0, 7 or 11, controls 3.4): 1.7-1.8
- duration of EAE (EAE [1]; 50 μg i.d. on day 0, 7 or 11, controls 6.6 days): 3 to 4 days
- EAE/TOTAL (EAE [1]; i.d. in saline, Day 0): 5/6
- EAE/TOTAL (EAE [1]; i.d., 10 μg, day of onset): 6/6
- Max Clin. Signs (EAE [1]; i.d., 10 μg, day of onset): 2.8 ± 0.4
- Onset (EAE [1]; i.d., 10 μg, day of onset): 12
- Duration (EAE [1]; i.d., 10 μg, day of onset, listed as TCR): 4.0 ± 0.9 days
- Duration (EAE [1]; i.d., 10 μg, day of onset, listed as TCR peptide): 4.0 days
- EAE/TOTAL (EAE [1]; i.d., 50 μg, day of onset): 9/9
- Max Clin. Signs (EAE [1]; i.d., 50 μg, day of onset): 2.8 ± 0.3
- Onset (EAE [1]; i.d., 50 μg, day of onset): 12
- Duration (EAE [1]; i.d., 50 μg, day of onset, listed as TCR): 3.1 ± 0.3 days
- Duration (EAE [1]; i.d., 50 μg, day of onset, listed as TCR peptide): 3.1 days
- Duration (EAE [1]; i.d., Day 0): 3.0 ± 1.8 days
- Max Clin. Signs (EAE [1]; i.d., Day 0): 1.8 ± 1.0
- Onset (EAE [1]; i.d., Day 0): 15
- Duration (EAE [1]; i.d., Day 7): 2.0 ± 1.9 days
- EAE/TOTAL (EAE [1]; i.d., Day 7): 4/6
- Max Clin. Signs (EAE [1]; i.d., Day 7): 1.7 ± 1.4
- Onset (EAE [1]; i.d., Day 7): 14
- Duration (EAE [1]; i.d., Day before onset): 2.5 ± 2.1 days
- EAE/TOTAL (EAE [1]; i.d., Day before onset): 6/8
- Max Clin. Signs (EAE [1]; i.d., Day before onset): 1.8 ± 1.3
- Onset (EAE [1]; i.d., Day before onset): 12
- rats with onset of EAE completely prevented (EAE [1]; injection after GP-MBP challenge but before onset): 4/19
- rats with all clinical signs of EAE completely suppressed (EAE [1]; injection at the same time as GP-MBP challenge): 6/19
- Duration (EAE [1]; peptide/CFA s.q., Day 0): 2.0 days
- EAE/TOTAL (EAE [1]; peptide/CFA s.q., Day 0): 8/13
- Max Clin. Signs (EAE [1]; peptide/CFA s.q., Day 0): 1.3
- Onset (EAE [1]; peptide/CFA s.q., Day 0): 13
- Duration (EAE [1]; [4]): 2.0 ± 1.8 days
- Max Clin. Signs (EAE [1]; [4]): 1.3 ± 1.1
- Duration (EAE [1]; peptide/CFA s.q., Day -40): 0 ± 0 days
- EAE/TOTAL (EAE [1]; peptide/CFA s.q., Day -40): complete protection against clinical EAE
- Max Clin. Signs (EAE [1]; peptide/CFA s.q., Day -40): 0 ± 0
- EAE/TOTAL (EAE [1]; peptide/CFA s.q., Day -40, listed as TCR): 0/20
- Duration (EAE [1]; peptide/CFA s.q., Day onset): 3.5 days
- EAE/TOTAL (EAE [1]; peptide/CFA s.q., Day onset): 20/20
- Max Clin. Signs (EAE [1]; peptide/CFA s.q., Day onset): 2.3 ± 0.9
- Onset (EAE [1]; peptide/CFA s.q., Day onset): 12
- Duration (EAE [1]; peptide/CFA s.q., Day onset, listed as TCR): 3.5 ± 1.4 days
- Duration (EAE [1]; peptide/CFA, Day 10): 3.6 ± 0.9 days
- EAE/TOTAL (EAE [1]; peptide/CFA, Day 10): 5/5
- Max Clin. Signs (EAE [1]; peptide/CFA, Day 10): 2.8 ± 0.4
- Onset (EAE [1]; peptide/CFA, Day 10): 13
- Passive EAE Severity (passive EAE; 10^7 BP/1st line cells from treated rats): 0
- Passive EAE N (passive EAE; 10^7 GPBP activated BP/1st line cells from treated rats i.p. into naive rats): 0/3
- Ability to Transfer EAE (passive EAE; GPBP-selected T cells of rats given TCR peptide ID day 13): YES
- Ear Swelling 24 h (DTH (ear swelling)): 36 ± 8 mm/100
- Ear Swelling 48 h (DTH (ear swelling)): 41 ± 9 mm/100
- Theoretical Absorbance against Gp-(S87-99) normalized to 1:40 (Gp-(S87-99); TCR day 0, Gp-S(87-99) d. 44, bleed d. 65): 784 Absorbance (×10^3)
- Antisera Reactivity Against Gp-(S87-99) (Gp-(S87-99); [5]): 348 Absorbance (×10^3)
- Antisera Reactivity Against Gp-(S87-99) (Gp-(S87-99); [6]): 11 Absorbance (×10^3)
- increase of anti-S87-99 responses (Gp-(S87-99); preimmunized with TCR peptide vs not treated): > 4 fold
- net proliferation of reactive cells (LNC and T cell lines; GP-MBP-selected line from TCR peptide-treated rats): 49,000 CPM
- net proliferation of reactive cells (LNC and T cell lines; GP-MBP-selected line from untreated EAE-recovered rats): 9,000 CPM
- Proliferation (LNC and T cell lines; Treated rats (TCR Vβ8 39-59/CFA at onset), LNC): 39 ± 4 CPM/1000
- Proliferation (LNC and T cell lines; Treated rats, line BP/1st): 66 ± 6 CPM/1000
- Proliferation (LNC and T cell lines; Treated rats, line Vβ8/1st): 85 ± 2 CPM/1000
- Proliferation (LNC and T cell lines; Untreated rats (GPBP/CFA only), LNC): 34 ± 4 CPM/1000
- Proliferation (LNC and T cell lines; Untreated rats, line BP/1st): 24 ± 3 CPM/1000
- Proliferation (LNC and T cell lines; Untreated rats, line Vβ8/1st): 34 ± 2 CPM/1000
- Proliferation (LNC and T cell lines; Untreated rats, line Vβ14/1st): 11 ± 1 CPM/1000
- Antisera Reactivity Against TCR Vβ 8 (39-59) (TCR Vβ 8(39-59)): 629 and 621
- absorbance of serum on TCR Vβ8(39-59) peptide (A405) (TCR Vβ8(39-59) peptide): 0.63±0.12 units
- Theoretical Absorbance against Gp-S49S normalized to 1:40 (Gp-S49S; [7]): 1750 Absorbance (×10^3)
- Antisera Reactivity Against Gp-S49S (Gp-S49S; [5]): 38 Absorbance (×10^3)
- Antisera Reactivity Against Gp-S49S (Gp-S49S; [6]): 875 Absorbance (×10^3)
- elevation of 26 day antibody responses to Gp-S49S and Gp-S53 (Gp-S49S; preimmunized with TCR peptide vs rats not treated): two to four fold
- Clinical Score (EAE [2]; 100 μg peptide/CFA day 0, GPBP (50 μg) challenge day 0): 0.7 ± 0.3
- Clinical Score (EAE [2]; 100 μg peptide/CFA day 0, Gp-S49S (100 μg) challenge day 0): 0.5
- Clinical Score (EAE [2]; [8]): 0.0
- Histological Score Br (EAE [2]; [8]): 0.5 ± 0.6
- Histological Score Sc (EAE [2]; [8]): 0.8 ± 0.5
- Clinical Score (EAE [2]; [9]): 0.8
- Histological Score Br (EAE [2]; [9]): 1.8 ± 1.7
- Histological Score Sc (EAE [2]; [9]): 2.8 ± 1.0
- DTH, change in ear thickness 48 h (DTH (ear thickness); Immunization None): 3 ± 1
- DTH, change in ear thickness 48 h (DTH (ear thickness); rats given 5 million C5Gp-BP (Vβ8.2+)): 6 ± 3
- DTH, change in ear thickness 48 h (DTH (ear thickness); rats given C455-69): 17 ± 2
- DTH, change in ear thickness 48 h (DTH (ear thickness); rats immunized with Vβ8.239-59 peptide/CFA): 39 ± 9
- DTH, change in ear thickness 48 h (DTH (ear thickness); rats immunized with Vβ8.639-59 peptide/CFA): 27 ± 4
- Clinical Signs of EAE (EAE [3]): None
- Theoretical Absorbance against Gp-S53 normalized to 1:40 (Gp-S53; [7]): 910 Absorbance (×10^3)
- Antisera Reactivity Against Gp-S53 (Gp-S53; [5]): 46 Absorbance (×10^3)
- Antisera Reactivity Against Gp-S53 (Gp-S53; [6]): 455 Absorbance (×10^3)
